The text below walks through data of patent publication US8236958B2, “Polymorphic forms of a GABAA agonist” (H. Lundbeck A/S, priority 2004, dated 2012).

Data set [1] addresses GABAA receptors comprising α4 and δ subunits (Homo sapiens, UniProt O14764+P28472+P48169). The following applies: Brown et al, British J. Pharmacol., 136, 965-74 (2002); cited from earlier work.
Data set [2] is described as follows: reversion of anhydrate to monohydrate under humidity. The format is physicochemical. The following applies: 25° C. The protocol: (§1) (The anhydrate of form I reverts to the monohydrate at 25° C./70% RH, while the anhydrate of form II reverts to the monohydrate at 25° C./90% RH).
Data set [3] can be described thus: relative thermodynamic stability of crystalline forms. The format is physicochemical. The following applies: comparison of form II with form I of the same hydration state. The protocol:
as §1

Data set [4] in a line: thermal decomposition studies. The following applies: based on thermal decomposition studies; monohydrate form II vs anhydrous form II. The format is physicochemical.

Chain of GABAA receptors comprising α4 and δ subunits (P48169 36-554): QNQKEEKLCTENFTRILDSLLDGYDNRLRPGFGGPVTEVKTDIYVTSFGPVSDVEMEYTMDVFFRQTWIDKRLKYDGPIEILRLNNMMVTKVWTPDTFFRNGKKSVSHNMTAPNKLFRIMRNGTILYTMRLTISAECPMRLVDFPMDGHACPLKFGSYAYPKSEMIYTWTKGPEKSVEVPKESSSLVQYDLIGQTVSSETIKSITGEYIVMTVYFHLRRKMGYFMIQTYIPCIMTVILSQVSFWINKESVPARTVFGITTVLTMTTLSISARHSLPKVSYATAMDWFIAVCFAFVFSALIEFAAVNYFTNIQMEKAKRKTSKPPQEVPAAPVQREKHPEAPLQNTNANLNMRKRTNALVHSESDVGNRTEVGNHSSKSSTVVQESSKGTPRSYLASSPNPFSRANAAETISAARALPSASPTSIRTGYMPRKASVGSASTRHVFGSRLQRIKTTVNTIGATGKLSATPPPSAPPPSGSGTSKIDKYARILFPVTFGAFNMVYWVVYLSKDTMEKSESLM
Chain of GABAA receptors comprising α4 and δ subunits (O14764 25-452): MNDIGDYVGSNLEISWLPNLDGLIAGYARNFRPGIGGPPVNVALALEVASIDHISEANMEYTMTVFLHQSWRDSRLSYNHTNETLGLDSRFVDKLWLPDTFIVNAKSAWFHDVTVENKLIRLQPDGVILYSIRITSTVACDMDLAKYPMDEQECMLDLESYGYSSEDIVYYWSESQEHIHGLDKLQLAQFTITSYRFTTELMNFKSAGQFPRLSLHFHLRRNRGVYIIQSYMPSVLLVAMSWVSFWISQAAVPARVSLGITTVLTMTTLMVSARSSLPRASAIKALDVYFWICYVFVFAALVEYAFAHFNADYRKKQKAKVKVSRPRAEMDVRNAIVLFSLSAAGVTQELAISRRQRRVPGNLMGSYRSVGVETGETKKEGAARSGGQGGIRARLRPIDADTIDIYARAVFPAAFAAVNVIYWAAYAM
Chain of GABAA receptors comprising α4 and δ subunits (P28472 26-473): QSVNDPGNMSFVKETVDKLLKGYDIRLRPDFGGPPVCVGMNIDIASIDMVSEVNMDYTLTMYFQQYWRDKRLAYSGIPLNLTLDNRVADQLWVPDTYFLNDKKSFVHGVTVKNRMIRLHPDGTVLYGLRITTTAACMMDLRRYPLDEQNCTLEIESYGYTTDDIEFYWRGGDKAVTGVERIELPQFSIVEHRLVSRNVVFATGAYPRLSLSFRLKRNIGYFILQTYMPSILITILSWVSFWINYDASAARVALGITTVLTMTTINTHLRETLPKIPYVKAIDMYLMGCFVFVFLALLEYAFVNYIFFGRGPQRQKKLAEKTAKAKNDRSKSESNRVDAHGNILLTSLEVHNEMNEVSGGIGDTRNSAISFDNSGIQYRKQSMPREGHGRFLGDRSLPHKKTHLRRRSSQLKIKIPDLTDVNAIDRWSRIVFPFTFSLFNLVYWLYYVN

Regarding `Oc1noc2c1CCNC2` [gaboxadol, 4,5,6,7-tetrahydroisoxazolo[5,4-c]pyridin-3-ol], the agonist potency entry in data set [1] is given as “particularly potent agonist”.
With `Oc1noc2c1CCNC2` [anhydrate of form I, 4,5,6,7-tetrahydroisoxazolo[5,4-c]pyridin-3-ol], the “relative humidity at which the anhydrate reverts to the monohydrate” value in data set [2] was 70 % RH.
With `Oc1noc2c1CCNC2` [anhydrate of form II, 4,5,6,7-tetrahydroisoxazolo[5,4-c]pyridin-3-ol], the “thermodynamic stability relative to the other polymorph” value in data set [3] (listed as gaboxadol anhydrate of form II) is “more stable than the anhydrate of form I”. The “relative humidity at which the anhydrate reverts to the monohydrate” value in data set [2] is recorded as 90 % RH.
Regarding `Oc1noc2c1CCNC2` [Gaboxadol monohydrate of form II, 4,5,6,7-tetrahydroisoxazolo[5,4-c]pyridin-3-ol], in data set [3], the “thermodynamic stability relative to the other polymorph” value is reported as “thermodynamically more stable than the monohydrate of form I”. For the same compound, the thermal profile result in data set [4] is on record as “safer thermal profile than the anhydrous form II”.
